Laboratory results: US6503951B2, “Use of creatine and/or creatine derivatives for treating typical disorders in women” (SKW Trostberg Aktiengesellschaft, priority 1999, dated 2003)

Experiments:
[1] = system: migraines; pain during menstruation; assay: Case 2:  four with migraines and menstrual pain; type: in vivo, person
[2] = system: depressions, lethargy and physical feebleness; blood pressure; assay: Case 6:  two; type: in vivo, person
Excerpt: Both they themself and their family noticed these improvements.

[3] = system: depressions, lethargy and physical feebleness; assay: Case 4: postmenopausal person seven; type: in vivo; conditions: daily dose of 1 to 4 g
Excerpt: The improvements were also noticed by their family.

PMS = assay: Case 7:  six with PMS; type: in vivo, person; conditions: average daily dose of 5 g

Compound: CN(CC(=O)O)C(=N)N.O [creatine monohydrate]
- migraine attacks provoked by heat or bodily or mental exertion ([1]; daily dose of 1.5 g, even under extreme conditions): able to prevent the attacks
- blood pressure ([2]; combined with an antihypertensive agent, previously severely hypertonic (sys up to 270)): returned to normal
- motivation (lethargy) ([2]; daily dose of 1 to 5 g): unexpected new motivation
- spirits (depressions) ([2]; daily dose of 1 to 5 g): rise in spirits
- strength (physical feebleness) ([2]; daily dose of 1 to 5 g): increase in strength

Compound: creatine ascorbate
- motivation (lethargy) [3]: unexpectedly motivated
- spirits (depressions) [3]: rise in spirits
- strength (physical feebleness) [3]: gained in strength

Compound: creatine pyruvate
- pain during menstruation ([1]; dose not stated): able to stop the pain
- abdominal pain (PMS): no longer suffered
- physical complaints of PMS (PMS): complete relief
- tenderness and swelling of the breast (PMS): no longer suffered
